We go through 20 compounds from ChEMBL document CHEMBL1909046, “DrugMatrix in vitro pharmacology data”.

The IC50 is the point on the concentration scale where inhibition reaches its midpoint. As a reminder, the Ki is a measure of affinity in units of concentration, obtained from inhibition or displacement.

The target in assay [1] is T1, 5-hydroxytryptamine receptor 2C (Homo sapiens, UniProt P28335).
T1 sequence (P28335 whole entry): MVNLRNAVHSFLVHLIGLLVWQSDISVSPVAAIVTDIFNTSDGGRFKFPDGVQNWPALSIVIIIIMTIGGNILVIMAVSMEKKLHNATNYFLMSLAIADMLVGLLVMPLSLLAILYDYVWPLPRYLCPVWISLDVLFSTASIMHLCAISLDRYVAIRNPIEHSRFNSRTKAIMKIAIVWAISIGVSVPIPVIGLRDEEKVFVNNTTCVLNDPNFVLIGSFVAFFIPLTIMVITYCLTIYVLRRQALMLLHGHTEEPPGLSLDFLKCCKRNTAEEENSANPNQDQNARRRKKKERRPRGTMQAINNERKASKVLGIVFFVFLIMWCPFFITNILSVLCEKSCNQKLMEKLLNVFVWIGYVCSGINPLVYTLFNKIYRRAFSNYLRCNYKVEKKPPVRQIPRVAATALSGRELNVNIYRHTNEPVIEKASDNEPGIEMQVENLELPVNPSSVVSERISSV
Put plainly: DRUGMATRIX: Serotonin (5-Hydroxytryptamine) 5-HT2C radioligand binding (ligand: [3H] Mesulergine). It is filed as cell membranes, CHO-K1, Membrane. Conditions: Not Active = under 50% inhibition at 10 µM.

The next assay concerns the target T2, Substance-K receptor (Homo sapiens, UniProt P21452). Also: in other assays of this panel Not Active means under 50% inhibition at 10 µM.
T2 sequence (P21452 whole entry): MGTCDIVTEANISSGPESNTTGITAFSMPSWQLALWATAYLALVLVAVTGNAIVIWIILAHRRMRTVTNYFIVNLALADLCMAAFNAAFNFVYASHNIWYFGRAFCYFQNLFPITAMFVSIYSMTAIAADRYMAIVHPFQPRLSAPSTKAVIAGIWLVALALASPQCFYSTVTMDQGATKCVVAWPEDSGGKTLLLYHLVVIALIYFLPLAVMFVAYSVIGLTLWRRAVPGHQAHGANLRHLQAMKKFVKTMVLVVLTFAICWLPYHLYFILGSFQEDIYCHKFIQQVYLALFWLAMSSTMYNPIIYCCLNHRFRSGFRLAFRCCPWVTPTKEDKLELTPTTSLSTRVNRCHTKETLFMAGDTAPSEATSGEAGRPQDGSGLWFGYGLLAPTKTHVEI
The format is cell membranes, CHO, Membrane. Conditions: for Ki: read-out: Ki.

The target of assay [2] is T3, 3-hydroxy-3-methylglutaryl-coenzyme A reductase (Homo sapiens, UniProt P04035).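 Also: enzyme inhibition assay of HMG-CoA reductase using radiolabeled [14C]HMG-CoA as substrate; in other assays of this panel Not Active means under 50% inhibition at 10 µM.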
T3 sequence (P04035 whole entry): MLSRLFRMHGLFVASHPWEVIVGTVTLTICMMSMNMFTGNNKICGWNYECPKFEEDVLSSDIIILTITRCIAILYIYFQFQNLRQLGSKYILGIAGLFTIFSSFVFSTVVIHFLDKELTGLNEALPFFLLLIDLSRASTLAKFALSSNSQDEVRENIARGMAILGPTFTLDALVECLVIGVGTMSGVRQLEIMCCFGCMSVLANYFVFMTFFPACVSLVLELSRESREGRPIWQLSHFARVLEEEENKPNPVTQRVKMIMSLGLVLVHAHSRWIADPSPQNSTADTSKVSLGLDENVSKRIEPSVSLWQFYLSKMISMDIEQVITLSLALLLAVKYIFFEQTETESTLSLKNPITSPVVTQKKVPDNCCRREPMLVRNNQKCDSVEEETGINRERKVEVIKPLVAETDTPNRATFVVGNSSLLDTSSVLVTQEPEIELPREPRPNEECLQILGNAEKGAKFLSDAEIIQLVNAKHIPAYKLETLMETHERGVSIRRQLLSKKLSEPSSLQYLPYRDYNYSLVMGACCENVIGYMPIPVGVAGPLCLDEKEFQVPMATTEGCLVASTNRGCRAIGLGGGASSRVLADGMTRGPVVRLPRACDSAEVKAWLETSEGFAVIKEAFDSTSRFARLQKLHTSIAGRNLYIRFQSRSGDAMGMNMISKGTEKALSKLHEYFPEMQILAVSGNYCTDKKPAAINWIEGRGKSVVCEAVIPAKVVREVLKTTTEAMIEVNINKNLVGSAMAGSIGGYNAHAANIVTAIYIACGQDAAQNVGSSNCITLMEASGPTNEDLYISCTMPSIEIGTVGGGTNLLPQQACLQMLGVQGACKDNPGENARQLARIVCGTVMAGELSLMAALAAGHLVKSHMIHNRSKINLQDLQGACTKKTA
Details: species or system Escherichia coli.

Assay [3] addresses cGMP-specific 3',5'-cyclic phosphodiesterase (Homo sapiens, UniProt O76074). As to the kind of experiment: DRUGMATRIX: Phosphodiesterase PDE5 enzyme inhibition (substrate: [3H]cGMP + cGMP). It is filed as tissue-based. The note with it: platelet; Not Active = under 50% inhibition at 10 µM.
In assay [4] the target is Mitogen-activated protein kinase 3 (Homo sapiens, UniProt P27361). Put plainly: DRUGMATRIX: Protein Serine/Threonine Kinase, ERK1 enzyme inhibition (substrate: Myelin Basic Protein). The arrangement: species or system Escherichia coli. Conditions: Not Active = under 50% inhibition at 10 µM.
Chain of Mitogen-activated protein kinase 3 (P27361 whole entry): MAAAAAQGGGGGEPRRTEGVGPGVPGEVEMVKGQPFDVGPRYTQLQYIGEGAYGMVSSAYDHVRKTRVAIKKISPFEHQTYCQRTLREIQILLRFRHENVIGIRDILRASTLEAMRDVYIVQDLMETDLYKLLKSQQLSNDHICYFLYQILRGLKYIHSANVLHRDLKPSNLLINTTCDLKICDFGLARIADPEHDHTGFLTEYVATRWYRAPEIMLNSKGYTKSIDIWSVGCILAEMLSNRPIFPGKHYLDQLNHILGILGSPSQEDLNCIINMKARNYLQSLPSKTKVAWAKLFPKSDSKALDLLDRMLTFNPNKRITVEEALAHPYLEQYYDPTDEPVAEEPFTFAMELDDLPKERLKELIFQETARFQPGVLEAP
The next assay addresses T4, Adenosine receptor A1 (Homo sapiens, UniProt P30542).
T4 sequence (P30542 whole entry): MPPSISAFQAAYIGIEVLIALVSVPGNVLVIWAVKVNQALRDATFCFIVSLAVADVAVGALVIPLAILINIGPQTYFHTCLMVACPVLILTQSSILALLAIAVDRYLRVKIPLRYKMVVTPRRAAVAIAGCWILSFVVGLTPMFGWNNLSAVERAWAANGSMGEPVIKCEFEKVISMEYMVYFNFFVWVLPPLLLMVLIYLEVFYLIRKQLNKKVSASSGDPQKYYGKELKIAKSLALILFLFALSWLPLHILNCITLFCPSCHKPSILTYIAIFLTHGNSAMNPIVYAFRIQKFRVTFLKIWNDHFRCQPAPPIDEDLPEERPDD
It is filed as cell membranes, CHO, Membrane. Conditions: cho.

As for `Cc1c(C)c2c(c(C)c1O)CCC(C)(COc1ccc(CC3SC(=O)NC3=O)cc1)O2` (configuration not stated) [TROGLITAZONE], the IC50 entry (in assay [1] (cho-k1); at Substance-K receptor (cho); in assay [2]; in assay [3]; in assay [4]; at Adenosine receptor A1) was “Not Active” each time.
For the compound `c1ccc([C@H]2CN3CCSC3=N2)cc1` [LEVAMISOLE], the IC50 entry (in assay [1] (cho-k1); at Substance-K receptor (cho); in assay [2]; in assay [3]; in assay [4]; against Adenosine receptor A1) was “Not Active” in each case.
Regarding `CC[C@]1(O)C[C@H]2CN(CCc3c([nH]c4ccccc34)[C@@](C(=O)OC)(c3cc4c(cc3OC)N(C=O)[C@H]3[C@@](O)(C(=O)OC)[C@H](OC(C)=O)[C@]5(CC)C=CCN6CC[C@]43[C@@H]65)C2)C1` [VINCRISTINE], the IC50 entry (in assay [1] (cho-k1); against Substance-K receptor (cho); in assay [2]; in assay [3]; in assay [4]; on Adenosine receptor A1) was “Not Active” in each case.
Regarding `O=c1ncn2nc(Sc3ccc(F)cc3F)ccc2c1-c1c(Cl)cccc1Cl` [NEFLAMAPIMOD], the IC50 result (in assay [1] (cho-k1); at Substance-K receptor (cho); in assay [2]; in assay [3]; in assay [4]; against Adenosine receptor A1) was “Not Active” each time.
In the case of `NS(=O)(=O)c1cc2c(cc1Cl)NC(C(Cl)Cl)NS2(=O)=O` (configuration not stated) [TRICHLORMETHIAZIDE], the IC50 result (in assay [1] (cho-k1); on Substance-K receptor (cho); in assay [2]; in assay [3]; in assay [4]; against Adenosine receptor A1) was “Not Active” throughout.
Take `CCCOc1ccccc1-c1nc2nn[nH]c2c(=O)[nH]1` [ZAPRINAST]: the IC50 entry (in assay [1] (cho-k1); against Substance-K receptor (cho); in assay [2]; in assay [4]; against Adenosine receptor A1) was “Not Active” throughout.
Consider `N#CC(C#N)=Cc1ccc(O)c(O)c1` [TYRPHOSTIN 23], for which the IC50 result (in assay [1] (cho-k1); against Substance-K receptor (cho); in assay [2]; in assay [3]; in assay [4]; on Adenosine receptor A1) was “Not Active” in each case.
`C=CCC1(C(C)CCC)C(=O)NC(=O)NC1=O` (configuration not stated) [SECOBARBITAL]: the IC50 result (in assay [1] (cho-k1); against Substance-K receptor (cho); in assay [2]; in assay [3]; in assay [4]; against Adenosine receptor A1) was “Not Active” each time.
With `OCCN(CCO)c1nc(N2CCCCC2)c2nc(N(CCO)CCO)nc(N3CCCCC3)c2n1` [DIPYRIDAMOLE], the IC50 entry (in assay [1] (cho-k1); at Substance-K receptor (cho); in assay [2]; in assay [4]; against Adenosine receptor A1) was “Not Active” each time.
Take `Nc1c2c(nc3ccccc13)CCCC2` [TACRINE]: the IC50 entry (in assay [1] (cho-k1); at Substance-K receptor (cho); in assay [2]; in assay [3]; in assay [4]; against Adenosine receptor A1) was “Not Active” throughout.
In the case of `Cn1ccnc1S` [METHIMAZOLE], the IC50 result (in assay [1] (cho-k1); against Substance-K receptor (cho); in assay [2]; in assay [3]; in assay [4]; on Adenosine receptor A1) was “Not Active” in each case.
With `N[C@@H]1[C@H]2CN(c3nc4c(cc3F)c(=O)c(C(=O)O)cn4-c3ccc(F)cc3F)C[C@@H]12` [TROVAFLOXACIN], the IC50 result (in assay [1] (cho-k1); on Substance-K receptor (cho); in assay [2]; in assay [3]; in assay [4]; against Adenosine receptor A1) was “Not Active” each time.
For `CC1(C)O[C@@H]2C[C@H]3[C@@H]4CCC5=CC(=O)C=C[C@]5(C)[C@@]4(F)[C@@H](O)C[C@]3(C)[C@]2(C(=O)CO)O1` [TRIAMCINOLONE ACETONIDE], the IC50 entry (in assay [1] (cho-k1); against Substance-K receptor (cho); in assay [2]; in assay [3]; in assay [4]; against Adenosine receptor A1) was “Not Active” in each case.
As for `NC[C@H]1CC[C@H](C(=O)O)CC1` [TRANEXAMIC ACID], the IC50 result (in assay [1] (cho-k1); on Substance-K receptor (cho); in assay [2]; in assay [3]; in assay [4]; against Adenosine receptor A1) was “Not Active” throughout.
`COc1c(C)c2c(c(O)c1C/C=C(\C)CCC(=O)O)C(=O)OC2` [MYCOPHENOLIC ACID]: the IC50 entry (in assay [1] (cho-k1); against Substance-K receptor (cho); in assay [2]; in assay [3]; in assay [4]; against Adenosine receptor A1) was “Not Active” each time.
With `CC/C(=C(\c1ccccc1)c1ccc(OCCN(C)C)cc1)c1ccccc1` [TAMOXIFEN], the IC50 was 460 nM in assay [1] (read-out: IC50); 3670 nM on Substance-K receptor (read-out: IC50); “Not Active” in assay [2]; “Not Active” in assay [3]; “Not Active” in assay [4]. Besides, the Ki in assay [1] (read-out: Ki) worked out at 241 nM; at Substance-K receptor, 1220 nM.
As to `N[C@@H](Cc1ccc(N(CCCl)CCCl)cc1)C(=O)O`, the IC50 entry (in assay [1] (cho-k1); against Substance-K receptor (cho); in assay [2]; in assay [3]; in assay [4]; at Adenosine receptor A1) was “Not Active” in each case.
On to `CN1CCN(CCCN2c3ccccc3Sc3ccc(Cl)cc32)CC1` [PROCHLORPERAZINE], for which the IC50 entry (against Substance-K receptor (cho); in assay [2]; in assay [3]; in assay [4]; against Adenosine receptor A1) was “Not Active” each time.
As to `Cc1nc2n(c(=O)c1CCN1CCC(c3noc4cc(F)ccc34)CC1)CCCC2` [RISPERIDONE], the IC50 entry (against Substance-K receptor (cho); in assay [2]; in assay [3]; in assay [4]; against Adenosine receptor A1) was “Not Active” in each case.
As to `CCCCc1oc2ccccc2c1C(=O)c1cc(I)c(OCCN(CC)CC)c(I)c1` [AMIODARONE], the IC50 at Substance-K receptor (read-out: IC50) is 19300 nM; in assay [2], “Not Active”; in assay [3], “Not Active”; in assay [4], “Not Active”; on Adenosine receptor A1, “Not Active”. For the same compound, the Ki at Substance-K receptor came to 6440 nM.
